Data taken from ChEMBL document CHEMBL4390706, “Chemical constituents from the seeds of Cassia obtusefolia and their in vitro α-glucosidase inhibitory and antioxidant activities” (Bioorg Med Chem Lett, 2019).
Converted amounts (≈) assume the structure as drawn.

Tests used:
[1] = Inhibition of baker's yeast alpha-glucosidase using PNPG as substrate preincubated for 15 mins followed by substrate addition and measured after 15 mins; set-up: species or system Saccharomyces cerevisiae
[2] = Antioxidant activity assessed as DPPH radical scavenging activity incubated for 30 mins under dark condition; assay type: functional

SMILES | IC50 [1] [µg/mL] | IC50 [2] [µg/mL]
COc1c(O)c(C)cc2c1C(=O)c1c(O)cccc1C2=O [OBTUSIFOLIN] | 144.64 (≈ 509 µM) | –
Cc1cc(O)c2c(c1)C(=O)c1cccc(O)c1C2=O [CHRYSOPHANOL] | 50.6 (≈ 199 µM) | –
COc1c(C)cc2c(c1O)C(=O)c1c(cc(O)c(OC)c1O)C2=O | 120.65 (≈ 365 µM) | –
COc1ccc2c(c1O)C(=O)c1c(cc(C)c(O)c1OC)C2=O | 183.91 (≈ 585 µM) | –
COc1c(O)cc2c(c1O)C(=O)c1c(cc(C)c(O)c1OC)C2=O [AURANTIOOBTUSIN] | 107.81 (≈ 326 µM) | –
O=C1O[C@H]([C@@H](O)CO)C(O)=C1O [ASCORBIC ACID] | – | 6.48 (≈ 36.8 µM)
COc1cc(O)c2c(O)c3c(=O)oc(C)cc3cc2c1 | 80.01 (≈ 294 µM) | 78.4 (≈ 288 µM)
COc1cc(O)c2c(c1)C(=O)c1cc(C)cc(O)c1C2=O [PHYSCION] | 22.57 (≈ 79.4 µM) | –
C[C@H]1O[C@H](O[C@H]2[C@H](O)[C@@H](O)[C@@H](O[C@H]3[C@H](O)[C@@H](O)C(O)O[C@@H]3CO)O[C@@H]2CO)[C@H](O)[C@@H](O)[C@@H]1N[C@H]1C=C(CO)[C@@H](O)[C@H](O)[C@H]1O (stereo not given in full) [ACARBOSE] | < 5.05 | –
COc1cc(O)c2c(O)c3c(=O)cc(C)oc3cc2c1 [RUBROFUSARIN] | 162.04 (≈ 595 µM) | 3.03 (≈ 11.1 µM)
Cc1cc(O)c2c(c1)C(C1c3cccc(O)c3C(=O)c3c(O)cc(C)cc31)c1cccc(O)c1C2=O (stereo not given) | 60.09 (≈ 126 µM) | –
COc1cc(O)cc2c1C(=O)c1c(O)cc(C)cc1C2=O [QUESTIN] | 117.94 (≈ 415 µM) | –
COc1cc2c(c(O)c1OC)C(=O)c1c(cc(C)c(OC)c1OC)C2=O | 164.81 (≈ 460 µM) | –
